According to patent US7592345B2, “Piperazine and [1,4]diazepan derivatives as NK antagonists” (Hoffmann-La Roche Inc., priority 2007, dated 2009):

These molecules were tested against T1, recombinant human NK3 receptor (Homo sapiens, UniProt P29371) (assay: [3H]SR142801 competition binding assay). Conditions: [3H]SR142801, membranes from HEK293 cells transiently expressing recombinant human NK3 receptor; read-out: hNK3 Ki.
T1 construct: expressed in transfected cells; host or cells: HEK293 cells (transient expression), membranes
T1 sequence (P29371 1-465): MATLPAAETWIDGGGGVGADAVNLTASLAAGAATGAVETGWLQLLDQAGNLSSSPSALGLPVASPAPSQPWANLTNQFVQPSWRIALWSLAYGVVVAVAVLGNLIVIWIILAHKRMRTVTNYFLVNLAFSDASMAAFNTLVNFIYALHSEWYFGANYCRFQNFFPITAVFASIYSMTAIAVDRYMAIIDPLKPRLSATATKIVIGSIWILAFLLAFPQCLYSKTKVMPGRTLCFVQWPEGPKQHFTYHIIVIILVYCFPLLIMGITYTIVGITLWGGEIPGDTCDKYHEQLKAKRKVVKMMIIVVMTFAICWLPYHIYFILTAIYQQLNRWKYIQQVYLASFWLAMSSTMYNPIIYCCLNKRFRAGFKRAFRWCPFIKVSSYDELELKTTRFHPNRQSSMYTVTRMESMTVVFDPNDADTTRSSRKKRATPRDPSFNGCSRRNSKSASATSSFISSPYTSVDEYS
Summary of the method: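 Membranes from HEK293 cells transiently expressing human NK3 were incubated 75 min at RT with [3H]SR142801 at its KD and inhibitor (0.0003-10 μM) in Tris-HCl pH 7.4/MnCl2/phosphoramidon/BSA. Nonspecific binding used 10 μM SB222200. Ki from Hill-fitted IC50 via Cheng-Prusoff, duplicate determinations.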

Row | Ki | SMILES
1 | 89.5 nM | COc1cc(CN(C)C(=O)C(C)(CCN2CCCN(S(C)(=O)=O)CC2)c2ccc(Cl)c(Cl)c2)ccc1OC(F)F (stereo not drawn) [Example 108, 2-(3,4-Dichloro-phenyl)-N-(4-difluoromethoxy-3-methoxy-benzyl)-4-(4-methanesulfonyl-[1,4]diazepan-1-yl)-2,N-dimethyl-butyramide]
2 | 300 nM | C[C@H]1CN(CCC(C)(C(=O)NCc2cccc(OC(F)F)c2)c2ccc(Cl)c(Cl)c2)CCN1S(C)(=O)=O (stereo partly drawn) [Example 73, 2-(3,4-Dichloro-phenyl)-N-(3-difluoromethoxy-benzyl)-4-((S)-4-methanesulfonyl-3-methyl-piperazin-1-yl)-2-methyl-butyramide]
3 | 355 nM | CN(Cc1ccccc1)C(=O)C(CCN1CCN(S(C)(=O)=O)CC1)c1ccc(Cl)c(Cl)c1 (stereo not drawn) [Example 4, N-Benzyl-2-(3,4-dichloro-phenyl)-4-(4-methanesulfonyl-piperazin-1-yl)-N-methyl-butyramide]
4 | 128 nM | CC(CCN1CCCN(S(C)(=O)=O)CC1)(C(=O)NCc1ccc(OC(F)(F)F)cc1)c1ccc(Cl)c(Cl)c1 (stereo not drawn) [Example 99, 2-(3,4-Dichloro-phenyl)-4-(4-methanesulfonyl-[1,4]diazepan-1-yl)-2-methyl-N-(4-trifluoromethoxy-benzyl)-butyramide]
5 | 485 nM | C[C@@H]1CN(CCC(C)(C(=O)NCc2ccc(N(C)C)cc2)c2ccc(Cl)c(Cl)c2)CCN1S(C)(=O)=O (stereo partly drawn) [Example 37, 2-(3,4-Dichloro-phenyl)-N-(4-dimethylamino-benzyl)-4-((R)-4-methanesulfonyl-3-methyl-piperazin-1-yl)-2-methyl-butyramide]
6 | 107 nM | C[C@H]1CN(CCC(C)(C(=O)N(C)Cc2cccc(Cl)c2)c2ccc(Cl)c(Cl)c2)CCN1S(C)(=O)=O (stereo partly drawn) [Example 88, N-(3-Chloro-benzyl)-2-(3,4-dichloro-phenyl)-4-((S)-4-methanesulfonyl-3-methyl-piperazin-1-yl)-2,N-dimethyl-butyramide]
7 | 169 nM | CN(Cc1ccccc1Cl)C(=O)C(C)(CCN1CCN(S(C)(=O)=O)CC1)c1ccc(Cl)c(Cl)c1 (stereo not drawn) [Example 16, N-(2-Chloro-benzyl)-2-(3,4-dichloro-phenyl)-4-(4-methanesulfonyl-piperazin-1-yl)-2,N-dimethyl-butyramide]
8 | 67.4 nM | CC(NC(=O)C(C)(CCN1CCN(S(C)(=O)=O)[C@@H](C)C1)c1ccc(Cl)c(Cl)c1)c1ccc(Cl)cc1 (stereo partly drawn) [Example 77, N-[1-(4-Chloro-phenyl)-ethyl]-2-(3,4-dichloro-phenyl)-4-((S)-4-methanesulfonyl-3-methyl-piperazin-1-yl)-2-methyl-butyramide]
9 | 50.8 nM | Cc1ccc(CN(C)C(=O)C(C)(CCN2CCN(S(C)(=O)=O)[C@H](C)C2)c2ccc(Cl)c(Cl)c2)cc1 (stereo partly drawn) [Example 36, 2-(3,4-Dichloro-phenyl)-4-((R)-4-methanesulfonyl-3-methyl-piperazin-1-yl)-2,N-dimethyl-N-(4-methyl-benzyl)-butyramide]
10 | 66.3 nM | C[C@H]1CN(CCC(C)(C(=O)N(C)Cc2ccc(Cl)cc2)c2ccc(Cl)c(Cl)c2)CCN1S(C)(=O)=O (stereo partly drawn) [Example 86, N-(4-Chloro-benzyl)-2-(3,4-dichloro-phenyl)-4-((S)-4-methanesulfonyl-3-methyl-piperazin-1-yl)-2,N-dimethyl-butyramide]
11 | 12.6 nM | C[C@@H]1CN(CCC(C)(C(=O)N(C)Cc2ccc(Cl)c(C(F)(F)F)c2)c2ccc(Cl)c(Cl)c2)CCN1S(C)(=O)=O (stereo partly drawn) [Example 39, N-(4-Chloro-3-trifluoromethyl-benzyl)-2-(3,4-dichloro-phenyl)-4-((R)-4-methanesulfonyl-3-methyl-piperazin-1-yl)-2,N-dimethyl-butyramide]
12 | 136 nM | CC(CCN1CCCN(S(C)(=O)=O)CC1)(C(=O)NCc1cc(C(F)(F)F)ccc1F)c1ccc(Cl)c(Cl)c1 (stereo not drawn) [Example 118, 2-(3,4-Dichloro-phenyl)-N-(2-fluoro-5-trifluoromethyl-benzyl)-4-(4-methanesulfonyl-[1,4]diazepan-1-yl)-2-methyl-butyramide]
13 | 40.6 nM | CC(CCN1CCN(S(C)(=O)=O)CC1)(C(=O)N[C@@H](CO)c1ccccc1)c1ccc(Cl)c(Cl)c1 (single isomer, unassigned) [Example 128, (R or S)-2-(3,4-Dichloro-phenyl)-N-((R)-2-hydroxy-1-phenyl-ethyl)-4-(4-methanesulfonyl-piperazin-1-yl)-2-methyl-butyramide]
14 | 94.2 nM | C[C@H]1CN(CCC(C)(C(=O)NCc2ccc(Cl)c(F)c2)c2ccc(Cl)c(Cl)c2)CCN1S(C)(=O)=O (stereo partly drawn) [Example 82, N-(4-Chloro-3-fluoro-benzyl)-2-(3,4-dichloro-phenyl)-4-((S)-4-methanesulfonyl-3-methyl-piperazin-1-yl)-2-methyl-butyramide]
15 | 66.4 nM | CN(Cc1ccc(Cl)cc1)C(=O)C(C)(CCN1CCN(S(C)(=O)=O)CC1)c1ccc(Cl)c(Cl)c1 (stereo not drawn) [Example 12, N-(4-Chloro-benzyl)-2-(3,4-dichloro-phenyl)-4-(4-methanesulfonyl-piperazin-1-yl)-2,N-dimethyl-butyramide]
16 | 16.9 nM | C[C@@H]1CN(CCC(C)(C(=O)N(C)Cc2ccc(C(F)(F)F)cc2)c2ccc(Cl)c(Cl)c2)CCN1S(C)(=O)=O (stereo partly drawn) [Example 55, 2-(3,4-Dichloro-phenyl)-4-((R)-4-methanesulfonyl-3-methyl-piperazin-1-yl)-2,N-dimethyl-N-(4-trifluoromethyl-benzyl)-butyramide]
17 | 16.7 nM | C[C@@H]1CN(CCC(C)(C(=O)N(C)Cc2ccc(C(F)(F)F)c(F)c2)c2ccc(Cl)c(Cl)c2)CCN1S(C)(=O)=O (stereo partly drawn) [Example 40, 2-(3,4-Dichloro-phenyl)-N-(3-fluoro-4-trifluoromethyl-benzyl)-4-((R)-4-methanesulfonyl-3-methyl-piperazin-1-yl)-2,N-dimethyl-butyramide]
18 | 99.5 nM | C[C@@H]1CN(CCC(C)(C(=O)NCc2cc(C(F)(F)F)ccc2F)c2ccc(Cl)c(Cl)c2)CCN1S(C)(=O)=O (stereo partly drawn) [Example 46, 2-(3,4-Dichloro-phenyl)-N-(2-fluoro-5-trifluoromethyl-benzyl)-4-((R)-4-methanesulfonyl-3-methyl-piperazin-1-yl)-2-methyl-butyramide]
19 | 186 nM | CC(CCN1CCN(S(C)(=O)=O)CC1)(C(=O)N[C@H](CO)c1ccc(Cl)cc1)c1ccc(Cl)c(Cl)c1 (stereo partly drawn) [Example 131, N-[(S)-1-(4-Chloro-phenyl)-2-hydroxy-ethyl]-2-(3,4-dichloro-phenyl)-4-(4-methanesulfonyl-piperazin-1-yl)-2-methyl-butyramide]
20 | 130 nM | C[C@@H]1CN(CCC(C)(C(=O)N(C)Cc2cccc(F)c2)c2ccc(Cl)c(Cl)c2)CCN1S(C)(=O)=O (stereo partly drawn) [Example 60, 2-(3,4-Dichloro-phenyl)-N-(3-fluoro-benzyl)-4-((R)-4-methanesulfonyl-3-methyl-piperazin-1-yl)-2,N-dimethyl-butyramide]
21 | 19.2 nM | C[C@H]1CN(CC[C@](C)(C(=O)NCc2ccc(Cl)c(Cl)c2)c2ccc(Cl)c(Cl)c2)CCN1S(C)(=O)=O (single isomer, unassigned) [Example 93, (S or R)—N-(3,4-Dichloro-benzyl)-2-(3,4-dichloro-phenyl)-4-((R)-4-methanesulfonyl-3-methyl-piperazin-1-yl)-2-methyl-butyramide]
